Source: ChEMBL document CHEMBL3763068, “Recent developments of 2-aminothiazoles in medicinal chemistry” (Eur J Med Chem, 2016)

What was measured:
[1] = test system: Human immunodeficiency virus 1; experiment: Antiviral activity against HIV1 3B coinfected with HTLV in human PBMC assessed as inhibition of viral p24 antigen production after 7 days by ELISA; type: functional, organism-based; settings: Human immunodeficiency virus 1, 3B, 168 h
[2] = Selectivity index, ratio of CC50 for human PBMC to IC50 for HIV1 3B; type: functional
[3] = Antiprion activity against […] RML PrPSc infected in mouse N2A cells after 6 days by ELISA; type: cell-based; settings: 144 h
[4] = Drug uptake in po dosed mouse brain measured after 3 days; type: ADME, organism-based; settings: read-out: Drug uptake
[5] = Cytotoxicity against human Hep3B cells assessed as growth inhibition after 48 hrs by MTT assay; type: functional, cell-based, Hep 3B2
[6] = biological target: High affinity nerve growth factor receptor (Homo sapiens, UniProt P04629); experiment: Inhibition of human recombinant N-terminal His6-tagged TRKA cytoplasmic domain (residues 440)
High affinity nerve growth factor receptor, sequence (P04629 whole entry, the tested form may be a part): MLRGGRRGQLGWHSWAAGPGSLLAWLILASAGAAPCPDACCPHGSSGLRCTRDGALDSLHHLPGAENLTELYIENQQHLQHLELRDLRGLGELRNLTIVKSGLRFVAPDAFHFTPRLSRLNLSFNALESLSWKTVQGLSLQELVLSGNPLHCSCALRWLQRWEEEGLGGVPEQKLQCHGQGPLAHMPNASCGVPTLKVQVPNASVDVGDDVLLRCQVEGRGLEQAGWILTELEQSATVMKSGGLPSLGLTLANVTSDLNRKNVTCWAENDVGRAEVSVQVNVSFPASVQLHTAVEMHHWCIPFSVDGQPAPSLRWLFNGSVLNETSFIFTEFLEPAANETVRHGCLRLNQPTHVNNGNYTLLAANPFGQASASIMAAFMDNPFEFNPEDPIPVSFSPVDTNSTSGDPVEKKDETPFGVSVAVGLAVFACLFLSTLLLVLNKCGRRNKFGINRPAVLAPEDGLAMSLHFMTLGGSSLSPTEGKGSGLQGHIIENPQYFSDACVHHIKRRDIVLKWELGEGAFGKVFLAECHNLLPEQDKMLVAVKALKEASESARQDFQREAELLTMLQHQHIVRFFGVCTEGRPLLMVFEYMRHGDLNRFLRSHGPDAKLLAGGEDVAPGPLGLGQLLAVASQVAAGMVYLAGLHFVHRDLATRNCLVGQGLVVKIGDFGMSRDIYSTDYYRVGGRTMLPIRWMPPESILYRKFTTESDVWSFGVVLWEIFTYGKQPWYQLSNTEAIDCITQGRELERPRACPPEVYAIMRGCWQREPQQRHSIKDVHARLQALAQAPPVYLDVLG

Compound	IC50 [1] [nM]	Ratio CC50/IC50 [2]	also measured
S=C(NCCOc1ccccc1)Nc1nccs1	< 1	>100000	–
S=C(NCc1ccco1)Nc1nccs1	< 1	>100000	–
Cc1ccc(Nc2nc(-c3cc(-c4ccccc4)no3)cs2)nc1	–	–	EC50 [3]: 940 nM; concentration at 72 h [4]: 25 µM
O=C(CCc1ccco1)Nc1nc(-c2ccccc2)cs1	–	–	IC50 [5]: 40 nM; IC50 [6]: 13 nM
